Source: US10683294B2, “5-5 fused rings as C5a inhibitors” (CHEMOCENTRYX, INC., priority 2017, dated 2020)
pIC50: −log10 of the molar value.

Target: C5aR (Homo sapiens (Human), UniProt P21730)
Assay: Chemotaxis assay (inhibition of C5aR mediated migration towards C5a)
Type: cell-based
Conditions: inhibition in the chemotaxis assay (Example 14 B.3); U937 or neutrophil cells, 0.03 nM C5a
Procedure: U937 cells are a monocytic cell line which express C5aR, and are available from ATCC (VA). These cells were cultured as a suspension in RPMI-1640 medium supplemented with 2 mM L-glutamine, 1.5 g/L sodium bicarbonate, 4.5 g/L glucose, 10 mM HEPES, 1 mM sodium pyruvate, and 10% FBS. Cells were grown under 5% CO2/95% air, 100% humidity at 37° C. and subcultured twice weekly at 1:6 (cells were cultured at a density range of 1×10^5 to 2×10^6 cells/mL) and harvested at 1×10^6 cells/mL. Prior to assay, cells are treated overnight with 0.5 mM of cyclic AMP (Sigma, Ohio) and washed once prior to use. cAMP treated U937 cells can be used in C5aR ligand binding and functional assays.
Optionally, human or murine neutrophils can be used to assay for compound activity. Neutrophils may be isolated from fresh human blood using density separation and centrifigation. Briefly, whole blood is incubated with equal parts 3% dextran and allowed to separate for 45 minutes. After separation, the top layer is layered on top of 15 mls of Ficoll (15 mls of Ficoll for every 30 mls of blood suspension) and centrifuged for 30 minutes at 400×g with no brake. The pellet at the bottom of the tube is then isolated and resuspended into PharmLyse RBC Lysis Buffer (BD Biosciences, San Jose, Calif.) after which the sample is again centrifuged for 10 minutes at 400×g with brake. The remaining cell pellet is resuspended as appropriate and consists of isolated neutrophils.
Optionally, compounds may be further assayed for their ability to inhibit chemotaxis in cells. Chemotaxis assays are performed using 5 μm pore polycarbonate, polyvinylpyrrolidone-coated filters in 96-well chemotaxis chambers (Neuroprobe; Gaithersburg, Md.) using chemotaxis buffer (Hank's balanced salt solution (HBSS) and 1% FBS). C5aR ligands (i.e., C5a, R&D Systems; Minneapolis, Minn.) are use to evaluate compound mediated inhibition of C5aR mediated migration. Other chemokines (i.e., SDF-1α; R&D Systems; Minneapolis, Minn.) are used as specificity controls. The lower chamber is loaded with 29 μl of chemokine (i.e., 0.03 nM C5a) and varying amounts of compound; the top chamber contains 100,000 U937 or neutrophil cells in 20 μl. The chambers are incubated 1.5 hours at 37° C., and the number of cells in the lower chamber quantified either by direct cell counts in five high powered fields per well or by the CyQuant assay (Molecular Probes), a fluorescent dye method that measures nucleic acid content and microscopic observation.

C5aR, sequence (P21730 whole entry): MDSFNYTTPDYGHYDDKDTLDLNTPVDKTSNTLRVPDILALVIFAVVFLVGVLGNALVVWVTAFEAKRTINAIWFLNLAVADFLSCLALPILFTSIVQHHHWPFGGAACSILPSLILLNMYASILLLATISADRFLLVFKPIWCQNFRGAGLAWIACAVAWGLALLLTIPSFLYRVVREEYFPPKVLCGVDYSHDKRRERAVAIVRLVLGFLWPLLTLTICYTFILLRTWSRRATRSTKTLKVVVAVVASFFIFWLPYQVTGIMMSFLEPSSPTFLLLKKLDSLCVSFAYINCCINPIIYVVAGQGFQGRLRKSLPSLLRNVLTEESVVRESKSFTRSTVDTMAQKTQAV

Compound | pIC50
CCc1cccc(CC)c1-n1nc2c(c1-c1ccc(F)c3[nH]ccc13)CN(C(=O)c1ccccn1)C2(C)C [Compound 1.028] | 6.30 to 7.30
CCc1cccc(CC)c1-n1nc2c(c1-c1cccc3[nH]cc(Cl)c13)CN(Cc1ccc(C(F)(F)F)cc1C(F)(F)F)C2(C)C [Compound 1.034] | 7.30 to 8.30
CCc1cccc(CC)c1-n1nc2c(c1-c1ccc(F)c3[nH]cc(Cl)c13)CN(Cc1ccc(Cl)cc1F)C2(C)C [Compound 1.015] | 7.30 to 8.30
CCc1cccc(CC)c1-n1nc2c(c1-c1cccc3[nH]cc(C#N)c13)CN(Cc1ccc(C(F)(F)F)cc1C(F)(F)F)C2(C)C [Compound 1.036] | 7.30 to 8.30
CCc1cccc(CC)c1-n1nc2c(c1-c1ccc(F)c3[nH]ccc13)CN(Cc1ccc(F)cc1Cl)C2(C)C [Compound 1.012] | 7.30 to 8.30
CCc1cccc(CC)c1-n1nc2c(c1-c1ccc(C)c3[nH]ccc13)CN(Cc1ccc(C(F)(F)F)cc1C(F)(F)F)C2(C)C [Compound 1.025] | > 8.30
CCc1cccc(CC)c1-n1nc2c(c1-c1ccc(F)c3[nH]cc(Cl)c13)CN(Cc1ccccc1C(F)(F)F)C2(C)C [Compound 1.026] | > 8.30
CCc1cccc(CC)c1-n1nc2c(c1-c1cccc3[nH]ccc13)CN(Cc1ccccc1C(F)(F)F)C2(C)C [Compound 1.044] | 7.30 to 8.30
Cc1cccc(C)c1-n1nc2c(c1-c1ccc3[nH]ccc3c1)CN(C(=O)CC(C)(C)C)C2 [Compound 1.061] | ≤ 6.30
CCc1cccc(CC)c1-n1nc2c(c1-c1ccc(F)c3[nH]cc(Cl)c13)CN(Cc1ccc(C(F)(F)F)cc1C(F)(F)F)C2(C)C [Compound 1.011] | 7.30 to 8.30
CCc1cccc(CC)c1-n1nc2c(c1-c1ccc(F)c3[nH]ccc13)CN(Cc1ccccc1)C2(C)C [Compound 1.021] | > 8.30
Cc1cccc(C)c1-n1nc2c(c1-c1ccc3[nH]ccc3c1)CN(C(=O)CCC1CCCC1)C2 [Compound 1.056] | ≤ 6.30
CCc1cccc(CC)c1-n1nc2c(c1-c1ccc(F)c3[nH]ccc13)CN(Cc1ccncc1)C2(C)C [Compound 1.014] | 6.30 to 7.30
CCc1cccc(CC)c1-n1nc2c(c1-c1ccc(F)c3[nH]ccc13)CN(Cc1cccnc1)C2(C)C [Compound 1.016] | 6.30 to 7.30
Cc1cccc(C)c1-n1nc2c(c1-c1ccc3[nH]cnc3c1)CN(CC(C)(C)C)C2 [Compound 1.051] | ≤ 6.30
CCc1cccc(CC)c1-n1nc2c(c1-c1ccc(F)c3[nH]ccc13)CN(Cc1ccc(C(F)(F)F)cc1C(F)(F)F)C2(C)C [Compound 1.039] | 7.30 to 8.30
CCc1cccc(CC)c1-n1nc2c(c1-c1ccc(F)c3[nH]ccc13)CN(C(=O)C(C)(C)C)C2(C)C [Compound 1.033] | 7.30 to 8.30
Cc1cccc(C)c1-n1nc2c(c1-c1ccc3[nH]ccc3c1)CN(CC(C)(C)C)C2(C)C [Compound 1.052] | 7.30 to 8.30
CCc1cccc(CC)c1-n1nc2c(c1-c1cccc3[nH]ccc13)CN(Cc1ccc(C(F)(F)F)cc1C(F)(F)F)C2(C)C [Compound 1.045] | 7.30 to 8.30
Cc1cccc(C)c1-n1nc2c(c1-c1ccc3[nH]ccc3c1)CN(C(=O)CC1CCCC1)C2 [Compound 1.057] | ≤ 6.30
CCc1cccc(CC)c1-n1nc2c(c1-c1ccc(F)c3[nH]ccc13)CN(Cc1cc(C(F)(F)F)cc(C(F)(F)F)c1)C2(C)C [Compound 1.001] | 7.30 to 8.30
CCc1cccc(CC)c1-n1nc2c(c1-c1cccc3[nH]ccc13)CN(Cc1cc(C(F)(F)F)ccc1C(F)(F)F)C2(C)C [Compound 1.038] | 7.30 to 8.30
CCc1cccc(CC)c1-n1nc2c(c1-c1c(F)ccc3[nH]ccc13)CN(Cc1ccc(C(F)(F)F)cc1C(F)(F)F)C2(C)C [Compound 1.043] | 7.30 to 8.30
CCc1cccc(CC)c1-n1nc2c(c1-c1ccc(F)c3[nH]ccc13)CN(Cc1ncco1)C2(C)C [Compound 1.008] | 6.30 to 7.30
CCc1cccc(CC)c1-n1nc2c(c1-c1ccc3[nH]ccc3c1)CN(C(c1ccccc1)C(C)(C)O)C2(C)C (stereo not shown) [Compound 1.049] | 6.30 to 7.30
CCc1cccc(CC)c1-n1nc2c(c1-c1ccc(F)c3[nH]ccc13)CN(Cc1ccc(Cl)cc1Cl)C2(C)C [Compound 1.020] | 7.30 to 8.30
CCc1cccc(CC)c1-n1nc2c(c1-c1ccc(F)c3[nH]ccc13)CN(C(=O)NC(C)C)C2(C)C [Compound 1.003] | ≤ 6.30
Cc1cccc(C)c1-n1nc2c(c1-c1ccc3[nH]ccc3c1)CN(C(=O)OC(C)(C)C)C2=O [Compound 1.055] | ≤ 6.30

Compound | pIC50
CCc1cccc(CC)c1-n1nc2c(c1-c1ccc(F)c3[nH]ccc13)CN(Cc1cccc(F)c1)C2(C)C [Compound 1.018] | 7.30 to 8.30
CCc1cccc(CC)c1-n1nc2c(c1-c1ccc3[nH]ccc3c1)CN(C(=O)OC(C)(C)C)C2(C)C [Compound 1.048] | 7.30 to 8.30
CCc1cccc(CC)c1-n1nc2c(c1-c1ccc(F)c3[nH]ccc13)CN(CC(C)(C)C)C2(C)C [Compound 1.032] | > 8.30
Cc1cccc(C)c1-n1nc2c(c1-c1ccc3[nH]ccc3c1)CN(C(=O)[C@@H](O)C(C)C)C2 [Compound 1.062] | ≤ 6.30
Cc1cccc(C)c1-n1nc2c(c1-c1ccc3[nH]ccc3c1)CN(C(=O)C(C)C1CCCCC1)C2 (stereo not shown) [Compound 1.060] | 6.30 to 7.30
CCc1cccc(CC)c1-n1nc2c(c1-c1ccc(F)c3[nH]ccc13)CN(Cc1ccccc1F)C2(C)C [Compound 1.022] | 7.30 to 8.30
CCc1cccc(CC)c1-n1nc2c(c1-c1ccc(F)c3[nH]cc(Cl)c13)CN(Cc1ccc(F)cc1F)C2(C)C [Compound 1.017] | > 8.30
CCc1cccc(CC)c1-n1nc2c(c1-c1ccc3[nH]ccc3c1)CN(Cc1cc(Cl)ccc1Cl)C2(C)C [Compound 1.046] | 7.30 to 8.30
CCc1cccc(CC)c1-n1nc2c(c1-c1ccc(F)c3[nH]ccc13)CN(CC(C)(C)O)C2(C)C [Compound 1.009] | 6.30 to 7.30
CCc1cccc(CC)c1-n1nc2c(c1-c1ccc(F)c3[nH]ccc13)CN(C(=O)CN)C2(C)C [Compound 1.006] | ≤ 6.30
CCc1cccc(CC)c1-n1nc2c(c1-c1ccc(F)c3[nH]ccc13)CN(C(=O)CC(C)C)C2(C)C [Compound 1.030] | 7.30 to 8.30
CCc1cccc(CC)c1-n1nc2c(c1-c1ccc(F)c3[nH]ccc13)CN(Cc1ccc(F)cc1)C2(C)C [Compound 1.023] | > 8.30
CCc1cccc(CC)c1-n1nc2c(c1-c1c(F)cc(F)c3[nH]ccc13)CN(Cc1ccc(C(F)(F)F)cc1C(F)(F)F)C2(C)C [Compound 1.037] | > 8.30
CCc1cccc(CC)c1-n1nc2c(c1-c1cccc3[nH]ccc13)CN(C(=O)Cn1nc(C(F)(F)F)cc1C)C2(C)C [Compound 1.040] | ≤ 6.30
CCc1cccc(CC)c1-n1nc2c(c1-c1ccc3[nH]ccc3c1)CN(Cc1ccccc1C(F)(F)F)C2(C)C [Compound 1.047] | 7.30 to 8.30
CCc1cccc(CC)c1-n1nc2c(c1-c1ccc(F)c3[nH]ccc13)CN(Cc1ccc(F)cc1F)C2(C)C [Compound 1.013] | 7.30 to 8.30
Cc1cccc(C)c1-n1nc2c(c1-c1ccc3[nH]ccc3c1)CN(C(=O)NC(C)(C)C)C2 [Compound 1.065] | ≤ 6.30
Cc1cccc(C)c1-n1nc2c(c1-c1ccc3[nH]ccc3c1)CN(C(=O)C1CCCC1)C2 [Compound 1.059] | ≤ 6.30
CCOC(C)(C)C(=O)N1Cc2nn(-c3c(C)cccc3C)c(-c3ccc4[nH]ccc4c3)c2C1 [Compound 1.054] | ≤ 6.30
CCc1cccc(CC)c1-n1nc2c(c1-c1ccc(F)c3[nH]ccc13)CN(C(=O)CNC(=O)OC(C)(C)C)C2(C)C [Compound 1.007] | 6.30 to 7.30
CCOC(=O)C(c1ccccc1)N1Cc2c(nn(-c3c(CC)cccc3CC)c2-c2ccc3[nH]ccc3c2)C1(C)C (stereo not shown) [Compound 1.050] | 7.30 to 8.30
CCc1cccc(CC)c1-n1nc2c(c1-c1cccc3[nH]ccc13)CN(C(=O)COc1ccccc1)C2(C)C [Compound 1.041] | 6.30 to 7.30
Cc1cccc(C)c1-n1nc2c(c1-c1ccc3[nH]ccc3c1)CN(C(=O)c1ccc(C(C)(C)C)cc1)C2 [Compound 1.064] | ≤ 6.30
CCc1cccc(CC)c1-n1nc2c(c1-c1cccc3[nH]ccc13)CN(Cc1cc(Cl)ccc1Cl)C2(C)C [Compound 1.042] | 7.30 to 8.30
CCc1cccc(CC)c1-n1nc2c(c1-c1ccc(Cl)c3[nH]ccc13)CN(Cc1ccc(C(F)(F)F)cc1C(F)(F)F)C2(C)C [Compound 1.024] | > 8.30
CCc1cccc(CC)c1-n1nc2c(c1-c1cccc3[nH]cc(C)c13)CN(Cc1ccc(C(F)(F)F)cc1C(F)(F)F)C2(C)C [Compound 1.035] | 7.30 to 8.30
CCc1cccc(CC)c1-n1nc2c(c1-c1cc(F)cc3[nH]ccc13)CN(Cc1ccc(C(F)(F)F)cc1C(F)(F)F)C2(C)C [Compound 1.031] | 7.30 to 8.30
